Measured values from ChEMBL document CHEMBL5143676, “Piezo-Type Mechanosensitive Ion Channel Component 1 (Piezo1): A Promising Therapeutic Target and Its Modulators” (J Med Chem, 2022).
Values belong to the compound of their own block, whether it stands above or below them. Bridge positions count the residues as written; N and C are the ends. Peptide text beside a SMILES is read from it.

What was measured:
[1] = molecular target: T1, Piezo-type mechanosensitive ion channel component 1 (Homo sapiens, UniProt Q92508); experiment: Agonist activity at human Piezo1 transfected in human HEK293T cells by FLIPR assay; format: cell-based
[2] = molecular target: T2, Piezo-type mechanosensitive ion channel component 1 (Mus musculus, UniProt E2JF22); experiment: Agonist activity at mouse Piezo1 transfected in human HEK293T cells by FLIPR assay; format: cell-based
[3] = molecular target: T1, Piezo-type mechanosensitive ion channel component 1; experiment: Binding affinity to Piezo1 (unknown origin) transfected in human HEK293 cells assessed as equilibrium constant at 40 mmHg/+50 mV; format: cell-based
[4] = molecular target: T1, Piezo-type mechanosensitive ion channel component 1; experiment: Inhibition of Piezo1 (unknown origin) transfected in human HEK293 cells assessed as rightward shift in pressure-gating curve at 50 mV at 1 to 4 uM; format: cell-based; settings: dose 1-4 µM
[5] = molecular target: T2, Piezo-type mechanosensitive ion channel component 1; experiment: Binding affinity to mouse Piezo1 assessed as dissociation constant by SPR assay
[6] = molecular target: T2, Piezo-type mechanosensitive ion channel component 1; experiment: Inhibition of mouse Piezo1

T1 sequence (Q92508 whole entry): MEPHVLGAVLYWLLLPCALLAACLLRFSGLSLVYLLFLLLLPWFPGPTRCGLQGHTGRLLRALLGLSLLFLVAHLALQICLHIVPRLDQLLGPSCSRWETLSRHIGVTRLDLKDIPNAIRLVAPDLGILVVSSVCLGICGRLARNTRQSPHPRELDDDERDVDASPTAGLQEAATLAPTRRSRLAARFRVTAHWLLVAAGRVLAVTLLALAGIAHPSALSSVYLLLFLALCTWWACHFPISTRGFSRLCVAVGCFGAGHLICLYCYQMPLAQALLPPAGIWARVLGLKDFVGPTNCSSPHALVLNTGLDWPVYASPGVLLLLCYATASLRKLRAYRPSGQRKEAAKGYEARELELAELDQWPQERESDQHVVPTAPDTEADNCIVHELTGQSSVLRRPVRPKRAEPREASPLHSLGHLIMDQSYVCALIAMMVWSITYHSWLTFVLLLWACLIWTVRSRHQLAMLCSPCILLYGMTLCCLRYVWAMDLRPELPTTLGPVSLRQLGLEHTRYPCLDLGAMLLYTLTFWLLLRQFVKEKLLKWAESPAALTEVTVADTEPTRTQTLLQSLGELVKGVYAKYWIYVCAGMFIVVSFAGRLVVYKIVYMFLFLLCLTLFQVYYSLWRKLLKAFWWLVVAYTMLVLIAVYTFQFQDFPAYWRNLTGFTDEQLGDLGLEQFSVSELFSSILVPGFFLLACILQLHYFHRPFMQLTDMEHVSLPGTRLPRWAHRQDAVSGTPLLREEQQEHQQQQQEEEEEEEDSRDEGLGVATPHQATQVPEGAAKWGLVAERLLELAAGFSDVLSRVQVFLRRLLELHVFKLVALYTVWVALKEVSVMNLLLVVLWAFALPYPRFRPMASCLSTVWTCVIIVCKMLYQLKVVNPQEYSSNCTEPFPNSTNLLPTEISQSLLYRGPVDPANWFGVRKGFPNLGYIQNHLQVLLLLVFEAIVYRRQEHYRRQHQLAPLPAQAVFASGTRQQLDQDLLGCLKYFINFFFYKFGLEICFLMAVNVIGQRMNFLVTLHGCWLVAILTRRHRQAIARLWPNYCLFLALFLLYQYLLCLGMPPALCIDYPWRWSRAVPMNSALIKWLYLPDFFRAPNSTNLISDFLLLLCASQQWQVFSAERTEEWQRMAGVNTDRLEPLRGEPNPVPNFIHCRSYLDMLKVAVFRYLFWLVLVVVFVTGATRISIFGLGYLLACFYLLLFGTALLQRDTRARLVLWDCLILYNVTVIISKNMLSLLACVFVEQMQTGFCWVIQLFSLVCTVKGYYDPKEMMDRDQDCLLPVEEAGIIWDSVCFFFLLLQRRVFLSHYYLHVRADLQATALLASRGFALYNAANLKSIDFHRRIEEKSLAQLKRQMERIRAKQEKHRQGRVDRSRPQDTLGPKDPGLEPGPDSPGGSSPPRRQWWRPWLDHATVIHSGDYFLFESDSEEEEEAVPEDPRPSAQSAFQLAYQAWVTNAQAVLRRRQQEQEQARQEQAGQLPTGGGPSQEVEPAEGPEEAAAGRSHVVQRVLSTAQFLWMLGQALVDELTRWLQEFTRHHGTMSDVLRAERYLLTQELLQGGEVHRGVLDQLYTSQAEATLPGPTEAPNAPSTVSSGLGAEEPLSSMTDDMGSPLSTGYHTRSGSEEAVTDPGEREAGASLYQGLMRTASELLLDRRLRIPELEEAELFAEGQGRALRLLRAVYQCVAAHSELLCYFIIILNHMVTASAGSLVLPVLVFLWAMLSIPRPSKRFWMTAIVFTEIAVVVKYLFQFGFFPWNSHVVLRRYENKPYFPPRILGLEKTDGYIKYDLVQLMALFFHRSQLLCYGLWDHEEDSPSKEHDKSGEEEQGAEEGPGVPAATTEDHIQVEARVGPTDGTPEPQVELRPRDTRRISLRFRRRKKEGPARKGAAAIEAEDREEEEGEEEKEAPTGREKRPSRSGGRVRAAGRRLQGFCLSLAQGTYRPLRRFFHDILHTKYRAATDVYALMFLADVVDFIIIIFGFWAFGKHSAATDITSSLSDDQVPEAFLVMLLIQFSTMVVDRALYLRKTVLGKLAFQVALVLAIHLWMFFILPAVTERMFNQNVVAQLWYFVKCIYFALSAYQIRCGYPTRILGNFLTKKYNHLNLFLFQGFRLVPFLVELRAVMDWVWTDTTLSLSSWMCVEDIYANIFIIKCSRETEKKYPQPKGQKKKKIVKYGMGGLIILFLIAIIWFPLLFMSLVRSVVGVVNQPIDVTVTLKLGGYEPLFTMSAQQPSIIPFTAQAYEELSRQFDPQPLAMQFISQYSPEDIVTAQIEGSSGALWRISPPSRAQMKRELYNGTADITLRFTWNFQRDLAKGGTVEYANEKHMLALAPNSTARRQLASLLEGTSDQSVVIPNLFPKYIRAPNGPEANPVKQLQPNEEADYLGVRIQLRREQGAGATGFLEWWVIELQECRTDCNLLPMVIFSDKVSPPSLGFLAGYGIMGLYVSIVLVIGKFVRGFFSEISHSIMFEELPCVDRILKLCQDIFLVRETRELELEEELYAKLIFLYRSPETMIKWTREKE
T2 sequence (E2JF22 whole entry): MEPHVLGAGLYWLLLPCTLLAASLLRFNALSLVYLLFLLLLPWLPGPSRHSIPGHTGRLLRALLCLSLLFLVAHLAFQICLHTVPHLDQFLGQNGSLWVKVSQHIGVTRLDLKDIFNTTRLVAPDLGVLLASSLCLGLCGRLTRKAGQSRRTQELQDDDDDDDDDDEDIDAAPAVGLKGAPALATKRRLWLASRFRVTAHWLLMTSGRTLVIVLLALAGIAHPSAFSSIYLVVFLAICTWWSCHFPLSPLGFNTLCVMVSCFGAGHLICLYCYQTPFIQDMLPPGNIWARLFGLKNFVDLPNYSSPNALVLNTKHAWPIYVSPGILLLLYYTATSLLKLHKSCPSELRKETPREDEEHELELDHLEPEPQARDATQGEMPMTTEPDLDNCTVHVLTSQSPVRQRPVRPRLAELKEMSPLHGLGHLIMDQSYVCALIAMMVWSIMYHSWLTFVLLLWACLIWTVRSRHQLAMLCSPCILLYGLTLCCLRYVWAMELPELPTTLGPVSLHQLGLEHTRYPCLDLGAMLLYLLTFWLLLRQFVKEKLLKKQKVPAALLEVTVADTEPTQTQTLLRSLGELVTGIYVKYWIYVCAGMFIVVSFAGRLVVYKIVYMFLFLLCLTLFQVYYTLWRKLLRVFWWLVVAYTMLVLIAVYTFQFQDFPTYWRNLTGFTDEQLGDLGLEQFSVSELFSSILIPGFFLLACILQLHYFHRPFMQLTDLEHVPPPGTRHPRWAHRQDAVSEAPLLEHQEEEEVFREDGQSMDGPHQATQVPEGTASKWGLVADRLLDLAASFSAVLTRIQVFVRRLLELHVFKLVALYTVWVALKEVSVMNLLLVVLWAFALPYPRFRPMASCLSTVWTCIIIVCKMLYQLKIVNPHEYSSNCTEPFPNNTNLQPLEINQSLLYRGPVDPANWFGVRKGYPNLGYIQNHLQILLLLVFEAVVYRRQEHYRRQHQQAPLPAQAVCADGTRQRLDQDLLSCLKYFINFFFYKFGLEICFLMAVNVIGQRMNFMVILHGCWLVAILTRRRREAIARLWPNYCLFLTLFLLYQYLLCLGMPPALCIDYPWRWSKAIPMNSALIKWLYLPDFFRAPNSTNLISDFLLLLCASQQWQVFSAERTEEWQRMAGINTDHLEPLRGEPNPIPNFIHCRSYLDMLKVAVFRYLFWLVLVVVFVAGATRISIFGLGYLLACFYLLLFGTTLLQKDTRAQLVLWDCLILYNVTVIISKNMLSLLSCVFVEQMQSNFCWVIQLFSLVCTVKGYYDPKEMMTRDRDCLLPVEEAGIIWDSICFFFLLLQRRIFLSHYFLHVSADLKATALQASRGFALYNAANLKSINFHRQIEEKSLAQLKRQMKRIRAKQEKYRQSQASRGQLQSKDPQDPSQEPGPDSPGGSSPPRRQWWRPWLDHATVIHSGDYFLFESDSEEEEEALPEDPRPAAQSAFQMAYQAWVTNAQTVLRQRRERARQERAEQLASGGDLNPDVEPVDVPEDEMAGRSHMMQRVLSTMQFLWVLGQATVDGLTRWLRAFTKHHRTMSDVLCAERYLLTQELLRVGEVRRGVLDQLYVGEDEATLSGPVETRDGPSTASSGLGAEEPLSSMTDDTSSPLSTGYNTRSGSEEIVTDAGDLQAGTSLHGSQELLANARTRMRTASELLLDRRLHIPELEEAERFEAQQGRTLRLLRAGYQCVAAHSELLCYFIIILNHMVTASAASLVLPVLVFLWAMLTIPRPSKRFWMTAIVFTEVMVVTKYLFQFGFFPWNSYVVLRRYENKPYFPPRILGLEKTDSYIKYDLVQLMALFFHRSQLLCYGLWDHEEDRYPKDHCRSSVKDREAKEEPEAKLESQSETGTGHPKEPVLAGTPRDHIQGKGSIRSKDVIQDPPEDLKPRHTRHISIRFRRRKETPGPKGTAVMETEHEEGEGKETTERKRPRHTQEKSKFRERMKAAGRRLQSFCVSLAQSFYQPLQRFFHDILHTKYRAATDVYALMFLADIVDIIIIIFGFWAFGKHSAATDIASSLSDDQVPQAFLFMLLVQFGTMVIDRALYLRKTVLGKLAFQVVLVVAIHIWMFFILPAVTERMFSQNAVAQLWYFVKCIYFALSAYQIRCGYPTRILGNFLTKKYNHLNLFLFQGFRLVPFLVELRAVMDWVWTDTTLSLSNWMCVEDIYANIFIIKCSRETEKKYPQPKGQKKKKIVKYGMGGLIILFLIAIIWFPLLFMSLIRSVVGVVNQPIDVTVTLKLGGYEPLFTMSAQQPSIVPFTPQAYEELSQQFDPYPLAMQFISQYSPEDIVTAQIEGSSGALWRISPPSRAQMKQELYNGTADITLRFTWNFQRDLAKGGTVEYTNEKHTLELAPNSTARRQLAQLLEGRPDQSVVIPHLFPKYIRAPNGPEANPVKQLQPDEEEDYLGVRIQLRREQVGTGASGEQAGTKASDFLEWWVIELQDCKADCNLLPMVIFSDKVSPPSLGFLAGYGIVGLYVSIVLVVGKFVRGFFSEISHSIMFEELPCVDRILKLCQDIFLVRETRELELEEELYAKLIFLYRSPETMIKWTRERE

EC50 [1]: 26.6 µM
EC50 [2]: 17.1 µM
SMILES: Clc1cccc(Cl)c1CSc1nnc(-c2cnccn2)s1

Ke [3]: 155 nM
Activity [4]: 30 mmHg
SMILES: CC(C)C[C@@H]1NC(=O)[C@@H](NC(=O)CN)CSSC[C@@H]2NC(=O)[C@@H]3CSSC[C@@H](C(=O)N[C@@H](CC(N)=O)C(=O)N[C@@H](Cc4ccccc4)C(=O)N[C@@H](CO)C(=O)N[C@@H](Cc4ccccc4)C(N)=O)NC(=O)[C@H](CC(C)C)NC(=O)[C@H](CCCCN)NC(=O)[C@H](Cc4ccccc4)NC(=O)[C@H](CC(C)C)NC(=O)[C@H](CCCCN)NC(=O)[C@H](CO)NC(=O)[C@H](CSSC[C@H](NC(=O)[C@H](CCCCN)NC(=O)[C@H](Cc4c[nH]c5ccccc45)NC(=O)[C@H](Cc4c[nH]c5ccccc45)NC(=O)[C@H](Cc4ccccc4)NC(=O)[C@H](CCC(=O)O)NC1=O)C(=O)N[C@@H](CC(N)=O)C(=O)N1CCC[C@H]1C(=O)N[C@@H](CC(N)=O)C(=O)N[C@@H](CC(=O)O)C(=O)N[C@@H](CC(=O)O)C(=O)N[C@@H](CCCCN)C(=O)N3)NC(=O)[C@H](CCCCN)NC(=O)[C@H](CC(C)C)NC(=O)[C@H](CCCCN)NC(=O)[C@@H]1CCCN1C(=O)[C@H](CCCNC(=N)N)NC2=O (H-GCLEFWWKCNPNDDKCCRPKLKCSKLFKLCNFSF-NH2; disulfide 2-17, 9-23, 16-30)

Kd [5]: 2240 µM
SMILES: Cc1oc(-c2cccs2)cc1C(=O)O

EC50 [6]: 200 µM
SMILES: Cc1oc(-c2ccccc2)cc1C(=O)O
